Test results from patent US11992494B2, “Cyclopentathiophene carboxamide derivatives as platelet activating factor receptor antagonists” (Boehringer Ingelheim International GmbH, priority 2021, dated 2024).

Target: PAFR (Homo sapiens, UniProt P25105)
Assay: cellular HTRF IP1 assay: inhibition of PAFR activation by PAF C-16 ligand (endpoint assay)
Format: cell-based
Parameters: expressed in transfected cells; host or cells: HEK293
Conditions: HEK293 cells overexpressing human PAFR; PAF ligand 11 nM; Table 2
Method: The ability of compounds of formula (I) to inhibit the activation of the PAF receptor (PAFR) by the PAF C-16 ligand (PAF) is determined using the following cellular HTRF IP1 assay (IP1 Gq assay kit from Cisbio, Cat. no.: 62IP1APEJ) in assay buffer (1×HBSS, 20 mM Hepes, pH 7.4, 50 mM LiCl and containing 0.1% (w/v) BSA):
Evaluation of the Inhibition of PAFR Activation Using an Endpoint Assay
HEK293 cells overexpressing human PAFR (produced in-house) are seeded into a Poly-D-Lysine coated 384 well white cell culture microtiter assay plate with lid (15.000 cells per well). Subsequently, the plates are incubated over night at 37° C./5% CO2. On the next day, cells are being washed and subsequently, various concentrations of the test compounds (compounds in 100% DMSO; final concentration of DMSO in wells is 1%) are added to the assay plate via Echo 555 acoustic liquid handler. Plates are then incubated with lid for 90 minutes at 37° C./5% CO2. Thereafter, PAF ligand (Cayman Chemical Company, Item no.: 60900) is added at a final concentration of 11 nM. Plates are then incubated with lid for 60 minutes at 37° C./5% CO2. Then, 5 μl per well of Anti-IP1-Antibody-Cryptate solution and 5 μl per well of IP1-d2 solution are added to all wells of the plate and the plate is incubated for another 60 minutes light protected at room temperature. The emissions at 620 nm and 665 nm (Excitation wavelength: 320 nm) are measured using an Envision Reader (PerkinElmer).

Chain of PAFR (P25105 whole entry): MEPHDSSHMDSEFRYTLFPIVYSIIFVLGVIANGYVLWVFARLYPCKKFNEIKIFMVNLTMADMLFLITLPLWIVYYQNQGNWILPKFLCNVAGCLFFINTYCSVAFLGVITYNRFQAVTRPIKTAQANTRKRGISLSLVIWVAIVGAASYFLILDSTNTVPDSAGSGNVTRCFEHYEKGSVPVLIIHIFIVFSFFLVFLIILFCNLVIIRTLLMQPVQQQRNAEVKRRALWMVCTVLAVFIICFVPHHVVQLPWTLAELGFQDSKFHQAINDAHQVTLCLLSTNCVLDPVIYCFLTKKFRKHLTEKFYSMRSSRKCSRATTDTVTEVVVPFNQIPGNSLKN

| SMILES | IC50 [nM] |
| --- | --- |
| CO[C@@H]1CC[C@H]1NC(=O)[C@@H]1Cc2sc3c(c2C1)C(c1ccccc1Cl)=NC1(CC1)c1nnc(C)n1-3 [Example 57] | 7.1 |
| Cc1nnc2n1-c1sc3c(c1C(c1cc(C#N)ccc1Cl)=NC21CC1)C[C@H](C(=O)N1CCOCC1)C3 [Example 2, 4-chloro-3-[(13′S)-3′-methyl-13′-(morpholine-4-carbonyl)-16′-thia-2′,4′,5′,8′-tetraazaspiro[cyclopropane-1,7′-tetracyclo[8.6.0.0^2,6.0^11,15]hexadecane]-1′(10′),3′,5′,8′,11′(15′)-pentaen-9′-yl]benzonitrile] | 83 |
| Cc1nnc2n1-c1sc3c(c1C(c1ccccc1)=NC21CC1)C[C@H](C(=O)N1CCOCC1)C3 [Example 120, (13′S)-3′-methyl-13′-(morpholine-4-carbonyl)-9′-phenyl-16′-thia-2′,4′,5′,8′-tetraazaspiro[cyclopropane-1,7′-tetracyclo[8.6.0.0^2,6.0^11,15]hexadecane]-1′(10′),3′,5′,8′,11′(15′)-pentaene] | 14 |
| Cc1nnc2n1-c1sc3c(c1C(c1ccccc1Cl)=NC21CC1)C[C@H](C(=O)N[C@@H]1CCc2c1ccnc2N)C3 [Example 103] | 14 |
| Cc1nnc2n1-c1sc3c(c1C(c1ccccc1Cl)=NC21CC1)C[C@H](C(=O)NC1CCC1)C3 [Example 7, (13′S)-9′-(2-chlorophenyl)-N-cyclobutyl-3′-methyl-16′-thia-2′,4′,5′,8′-tetraazaspiro-[cyclopropane-1,7′-tetracyclo[8.6.0.0^2,6.0^11,15]-hexadecane]-1′(10′),3′,5′,8′,11′(15′)-pentaene-13′-carboxamide] | 1.7 |
| Cc1nnc2n1-c1sc3c(c1C(c1ccccc1Cl)=NC21CC1)C[C@H](C(=O)N(C)[C@H]1CCCC[C@H]1O)C3 [Example 102] | 6.9 |
| Cc1nnc2n1-c1sc3c(c1C(c1ccccc1Cl)=NC21CC1)C[C@H](C(=O)NC1CCc2ncsc2C1)C3 (stereo partly drawn) [Example 34] | 3.8 |
| Cc1nnc2n1-c1sc3c(c1C(c1ccccc1Cl)=NC21CC1)C[C@H](C(=O)NC1(C)CC1)C3 [Example 18] | 3.4 |
| Cc1nnc2n1-c1sc3c(c1C(c1ccccc1Cl)=NC21CC1)C[C@H](C(=O)N[C@@H]1CCc2cc(C#N)ccc21)C3 [Example 63] | 1.7 |
| Cc1noc(C)c1NC(=O)[C@@H]1Cc2sc3c(c2C1)C(c1ccccc1Cl)=NC1(CC1)c1nnc(C)n1-3 [Example 128] | 5.7 |
| Cc1nnc2n1-c1sc3c(c1C(c1ccccc1Cl)=NC21CC1)C[C@H](C(=O)NC1CC1(C)C)C3 (stereo partly drawn) [Example 40] | 1.9 |
| Cc1nnc2n1-c1sc3c(c1C(c1ccccc1Cl)=NC21CC1)C[C@H](C(=O)N[C@@H]1CCOC1)C3 [Example 95] | 17 |
| Cc1cc2n(n1)CC(NC(=O)[C@@H]1Cc3sc4c(c3C1)C(c1ccccc1Cl)=NC1(CC1)c1nnc(C)n1-4)CC2 (stereo partly drawn) [Example 23] | 9.9 |
| Cc1nnc2n1-c1sc3c(c1C(c1ccccc1Cl)=NC21CC1)C[C@H](C(=O)N[C@H]1C[C@H](S(C)(=O)=O)C1)C3 [Example 113] | 28 |
| Cc1nnc2n1-c1sc3c(c1C(c1ccccc1Cl)=NC21CC1)C[C@H](C(=O)N1C[C@@H](C)O[C@H](C)C1)C3 [Example 123, (13′S)-9′-(2-chlorophenyl)-13′-[(2R,6R)-2,6-dimethylmorpholine-4-carbonyl]-3′-methyl-16′-thia-2′,4′,5′,8′-tetraazaspiro[cyclopropane-1,7′-tetracyclo[8.6.0.02,6.011,15]hexadecane]-1′(10′),3′,5′,8′,11′(15′)-pentaene] | 5 |
| Cc1nnc2n1-c1sc3c(c1C(c1ccccc1Cl)=NC21CC1)C[C@H](C(=O)NC1(C(F)(F)F)CC1)C3 [Example 16] | 4.1 |
| Cc1nnc2n1-c1sc3c(c1C(c1ccccc1Cl)=NC21CC1)C[C@H](C(=O)NC1(c2ccc(Cl)cn2)CC1)C3 [Example 35] | 1.6 |
| Cc1nnc2n1-c1sc3c(c1C(c1ccccc1Cl)=NC21CC1)C[C@H](C(=O)N[C@H]1C[C@@H]1C)C3 [Example 12] | 2.2 |

| SMILES | IC50 [nM] |
| --- | --- |
| Cc1nnc2n1-c1sc3c(c1C(c1ccccc1Cl)=NC21CC1)C[C@H](C(=O)NC1(C)CCCC1)C3 [Example 26] | 1.3 |
| Cc1nnc2n1-c1sc3c(c1C(c1ccccc1Cl)=NC21CC1)C[C@H](C(=O)NC1CCC1(C)C)C3 (stereo partly drawn) [Example 47] | 1.6 |
| Cc1nnc2n1-c1sc3c(c1C(c1ccccc1Cl)=NC21CC1)C[C@H](C(=O)NC1CCc2cccnc21)C3 (stereo partly drawn) [Example 42] | 7 |
| Cc1nnc2n1-c1sc3c(c1C(c1ccccc1Cl)=NC21CC1)C[C@H](C(=O)NCC1CC1)C3 [Example 68] | 1.9 |
| Cc1nnc2n1-c1sc3c(c1C(c1ccccc1Cl)=NC21CC1)C[C@H](C(=O)NC1CCc2ccc(F)cc21)C3 (stereo partly drawn) [Example 22] | 0.6 |
| Cc1nnc2n1-c1sc3c(c1C(c1ccccc1Cl)=NC21CC1)C[C@H](C(=O)NC1CCC2(CC1)CC2)C3 [Example 69] | 1.5 |
| Cc1nnc2n1-c1sc3c(c1C(c1ccccc1Cl)=NC21CC1)C[C@H](C(=O)N[C@H]1CCc2cccc(F)c21)C3 [Example 53] | 0.5 |
| CCN(C(=O)[C@@H]1Cc2sc3c(c2C1)C(c1ccccc1Cl)=NC1(CC1)c1nnc(C)n1-3)C1CCCCC1 [Example 91] | 1.5 |
| COc1cc(C2(NC(=O)[C@@H]3Cc4sc5c(c4C3)C(c3ccccc3Cl)=NC3(CC3)c3nnc(C)n3-5)CC2)ccn1 [Example 85] | 3.9 |
| Cc1nnc2n1-c1sc3c(c1C(c1ccccc1Cl)=NC21CC1)C[C@H](C(=O)N1CC2CC1C2)C3 [Example 11] | 3.6 |
| Cc1nnc2n1-c1sc3c(c1C(c1ccccc1Cl)=NC21CC1)C[C@H](C(=O)NC1(c2ccccc2)CCOCC1)C3 [Example 96] | 6 |
| Cc1nnc2n1-c1sc3c(c1C(c1ccccc1Cl)=NC21CC1)C[C@H](C(=O)NC1(CO)CCCCC1)C3 [Example 71] | 3.9 |
| Cc1nnc2n1-c1sc3c(c1C(c1ccccc1Cl)=NC21CC1)C[C@H](C(=O)NC1CC2CCC(C1)O2)C3 (stereo partly drawn) [Example 90] | 8.8 |
| Cc1nnc2n1-c1sc3c(c1C(c1ccccc1Cl)=NC21CC1)C[C@H](C(=O)NC1CCC(C)(C)OC1)C3 (stereo partly drawn) [Example 94] | 6.4 |
| Cc1nnc2n1-c1sc3c(c1C(c1ccccc1Cl)=NC21CC1)C[C@H](C(=O)N[C@H]1CC[C@@H](C(F)(F)F)CC1)C3 [Example 52] | 1.8 |
| Cc1nnc2n1-c1sc3c(c1C(c1ccccc1Cl)=NC21CC1)C[C@H](C(=O)N1CC2(CCCO2)C1)C3 [Example 126, (13′S)-9′-(2-chlorophenyl)-3′-methyl-13′-{5-oxa-2-azaspiro[3.4]octane-2-carbonyl}-16′-thia-2′,4′,5′,8′-tetraazaspiro[cyclopropane-1,7′-tetracyclo[8.6.0.0^2,6.0^11,15]hexadecane]-1′(10′),3′,5′,8′,11′(15′)-pentaene] | 9.4 |
| Cc1nnc2n1-c1sc3c(c1C(c1ccccc1Cl)=NC21CC1)C[C@H](C(=O)N[C@H]1C[C@H]2OCCC[C@@H]12)C3 [Example 93] | 5.2 |

Same assay, conditions: dedicated head-to-head comparison assay run: cyclopropylene vs di-methyl / cyclobutylene analogues

| SMILES | IC50 [nM] |
| --- | --- |
| Cc1nnc2n1-c1sc3c(c1C(c1ccccc1Cl)=NC21CC1)C[C@H](C(=O)NC1CCC1)C3 [Example 7, (13′S)-9′-(2-chlorophenyl)-N-cyclobutyl-3′-methyl-16′-thia-2′,4′,5′,8′-tetraazaspiro-[cyclopropane-1,7′-tetracyclo[8.6.0.0^2,6.0^11,15]-hexadecane]-1′(10′),3′,5′,8′,11′(15′)-pentaene-13′-carboxamide] | 2 |
| Cc1noc(C)c1NC(=O)[C@@H]1Cc2sc3c(c2C1)C(c1ccccc1Cl)=NC1(CC1)c1nnc(C)n1-3 [Example 128] | 5.5 |
| Cc1nnc2n1-c1sc3c(c1C(c1ccccc1Cl)=NC21CCC1)C[C@H](C(=O)N1CCOCC1)C3 [comparative example 2, reference compound] | 59 |
| Cc1nnc2n1-c1sc3c(c1C(c1ccccc1Cl)=NC2(C)C)C[C@H](C(=O)N1CCC(F)(F)CC1)C3 [reference compound] | 30 |
